Experimental data reported in ChEMBL document CHEMBL1201862, “PubChem BioAssay data set” (2004).
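In this assay, cells in 96-well plates receive the compound at five concentrations for 48 hours. Endpoints are linearly interpolated between the surrounding concentrations. GI50 is the concentration that inhibits growth by half.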 Calls of active or inactive are those of the source. No stated cut-off is given here; in the data, active = GI50 up to about 1.1 µM and inactive = higher.

Experiments:
Assay in all cases: growth of human tumour cells (NCI), 48 h
786-0 = system: 786-0
A498 = system: A498
A549 = system: A549
ACHN = system: ACHN
CAKI-1 = system: CAKI-1
CCRF-CEM = system: CCRF-CEM
COLO 205 = system: COLO 205
DLD-1 = system: DLD-1
DMS-114 = system: DMS-114
DMS-273 = system: DMS-273
EKVX = system: EKVX
HCC 2998 = system: HCC 2998
HCT-116 = system: HCT-116
HCT-15 = system: HCT-15
HOP-18 = system: HOP-18
HOP-62 = system: HOP-62
HOP-92 = system: HOP-92
HT-29 = system: HT-29
IGROV-1 = system: IGROV-1
K562 = system: K562
KM-20L2 = system: KM-20L2
KM12 = system: KM12
LOX IMVI = system: LOX IMVI
LXFL 529 = system: LXFL 529
M14 = system: M14
M19-MEL = system: M19-MEL
MOLT-4 = system: MOLT-4
Malme-3M = system: Malme-3M
NCI-H226 = system: NCI-H226
NCI-H23 = system: NCI-H23
NCI-H460 = system: NCI-H460
NCI-H522 = system: NCI-H522
OVCAR-3 = system: OVCAR-3
OVCAR-4 = system: OVCAR-4
OVCAR-5 = system: OVCAR-5
OVCAR-8 = system: OVCAR-8
RPMI-8226 = system: RPMI-8226
RXF 393 = system: RXF 393
SF-268 = system: SF-268
SF-295 = system: SF-295
SF-539 = system: SF-539
SK-MEL-28 = system: SK-MEL-28
SK-MEL-2 = system: SK-MEL-2
SK-MEL-5 = system: SK-MEL-5
SK-OV-3 = system: SK-OV-3
SN12C = system: SN12C
SNB-19 = system: SNB-19
SNB-75 = system: SNB-75
SNB-78 = system: SNB-78
SW-620 = system: SW-620
TK-10 = system: TK-10
U-251 = system: U-251
UACC-257 = system: UACC-257
UACC-62 = system: UACC-62
UO-31 = system: UO-31
XF498 = system: XF498
HL-60 = system: HL-60
SR = system: SR

## CCOC(=O)/C=C(/CN1C(=O)c2ccccc2C1=O)c1ccccc1
786-0
  GI50: > 100 µM (inactive)
A498
  GI50: > 100 µM (inactive)
A549
  GI50: > 100 µM (inactive)
ACHN
  GI50: > 100 µM (inactive)
CAKI-1
  GI50: > 100 µM (inactive)
CCRF-CEM
  GI50: > 100 µM (inactive)
COLO 205
  GI50: > 100 µM (inactive)
DLD-1
  GI50: > 100 µM (inactive)
DMS-114
  GI50: > 100 µM (inactive)
DMS-273
  GI50: > 100 µM (inactive)
EKVX
  GI50: > 100 µM (inactive)
HCC 2998
  GI50: > 100 µM (inactive)
HCT-116
  GI50: > 100 µM (inactive)
HCT-15
  GI50: > 100 µM
HOP-18
  GI50: > 100 µM (inactive)
HOP-62
  GI50: > 100 µM (inactive)
HOP-92
  GI50: > 100 µM (inactive)
HT-29
  GI50: > 100 µM (inactive)
IGROV-1
  GI50: > 100 µM (inactive)
K562
  GI50: > 100 µM (inactive)
KM-20L2
  GI50: > 100 µM (inactive)
KM12
  GI50: > 100 µM (inactive)
LOX IMVI
  GI50: > 100 µM (inactive)
LXFL 529
  GI50: > 100 µM (inactive)
M14
  GI50: > 100 µM (inactive)
M19-MEL
  GI50: > 100 µM (inactive)
MOLT-4
  GI50: > 100 µM (inactive)
Malme-3M
  GI50: > 100 µM (inactive)
NCI-H226
  GI50: > 100 µM (inactive)
NCI-H23
  GI50: > 100 µM (inactive)
NCI-H460
  GI50: > 100 µM (inactive)
NCI-H522
  GI50: > 100 µM (inactive)
OVCAR-3
  GI50: > 100 µM (inactive)
OVCAR-4
  GI50: > 100 µM (inactive)
OVCAR-5
  GI50: > 100 µM (inactive)
OVCAR-8
  GI50: > 100 µM (inactive)
RPMI-8226
  GI50: > 100 µM (inactive)
RXF 393
  GI50: > 100 µM (inactive)
SF-268
  GI50: > 100 µM (inactive)
SF-295
  GI50: > 100 µM (inactive)
SF-539
  GI50: > 100 µM (inactive)
SK-MEL-28
  GI50: > 100 µM (inactive)
SK-MEL-2
  GI50: > 100 µM (inactive)
SK-MEL-5
  GI50: > 100 µM (inactive)
SK-OV-3
  GI50: > 100 µM (inactive)
SN12C
  GI50: > 100 µM (inactive)
SNB-19
  GI50: > 100 µM (inactive)
SNB-75
  GI50: > 100 µM (inactive)
SNB-78
  GI50: 88.9 µM (inactive)
SW-620
  GI50: > 100 µM (inactive)
TK-10
  GI50: > 100 µM (inactive)
U-251
  GI50: > 100 µM (inactive)
UACC-257
  GI50: > 100 µM (inactive)
UACC-62
  GI50: > 100 µM (inactive)
UO-31
  GI50: > 100 µM (inactive)
XF498
  GI50: > 100 µM (inactive)

## OC12CCC3(OC4CCCCO4)c4ccccc4C3C1c1ccccc12 (stereo unspecified)
786-0
  GI50: 67.5 µM (inactive)
A549
  GI50: 85.1 µM (inactive)
ACHN
  GI50: 41.7 µM (inactive)
CCRF-CEM
  GI50: 58.9 µM (inactive)
COLO 205
  GI50: 55.1 µM (inactive)
DMS-114
  GI50: 87.5 µM (inactive)
DMS-273
  GI50: 61.7 µM (inactive)
EKVX
  GI50: > 100 µM (inactive)
HCT-116
  GI50: 35 µM (inactive)
HCT-15
  GI50: 24.2 µM
HL-60
  GI50: 30.3 µM (inactive)
HOP-18
  GI50: > 100 µM (inactive)
HOP-62
  GI50: > 100 µM (inactive)
HT-29
  GI50: 43.9 µM (inactive)
K562
  GI50: 46 µM (inactive)
KM-20L2
  GI50: 59.3 µM (inactive)
KM12
  GI50: 54.6 µM (inactive)
LOX IMVI
  GI50: 38.8 µM (inactive)
LXFL 529
  GI50: 41.2 µM (inactive)
M14
  GI50: 67.6 µM (inactive)
M19-MEL
  GI50: 90.4 µM (inactive)
MOLT-4
  GI50: 35.4 µM (inactive)
Malme-3M
  GI50: > 100 µM (inactive)
NCI-H226
  GI50: > 100 µM (inactive)
NCI-H23
  GI50: 90.2 µM (inactive)
NCI-H460
  GI50: 35.2 µM (inactive)
NCI-H522
  GI50: 37.6 µM (inactive)
OVCAR-4
  GI50: > 100 µM (inactive)
OVCAR-8
  GI50: 74.3 µM (inactive)
RPMI-8226
  GI50: 36 µM (inactive)
RXF 393
  GI50: 44.6 µM (inactive)
SF-268
  GI50: 65.9 µM (inactive)
SF-295
  GI50: 52.5 µM (inactive)
SK-MEL-28
  GI50: 76 µM (inactive)
SK-MEL-2
  GI50: > 100 µM (inactive)
SK-MEL-5
  GI50: 48.5 µM (inactive)
SK-OV-3
  GI50: > 100 µM (inactive)
SN12C
  GI50: 87.7 µM (inactive)
SNB-19
  GI50: 61.9 µM (inactive)
SNB-75
  GI50: > 100 µM (inactive)
SNB-78
  GI50: > 100 µM (inactive)
SR
  GI50: 37.2 µM (inactive)
SW-620
  GI50: 55.6 µM (inactive)
TK-10
  GI50: > 100 µM (inactive)
U-251
  GI50: 53.8 µM (inactive)
UACC-257
  GI50: 91.2 µM (inactive)
UACC-62
  GI50: 56.8 µM (inactive)
UO-31
  GI50: 59.6 µM (inactive)
XF498
  GI50: 31.8 µM (inactive)

## C=CCC1C(=O)CC2(C)CC(=O)C(CC=C)C12C (stereo unspecified)
786-0
  GI50: > 100 µM (inactive)
A549
  GI50: > 100 µM (inactive)
ACHN
  GI50: > 100 µM (inactive)
CAKI-1
  GI50: > 100 µM (inactive)
CCRF-CEM
  GI50: > 100 µM (inactive)
COLO 205
  GI50: > 100 µM (inactive)
DLD-1
  GI50: > 100 µM (inactive)
DMS-114
  GI50: > 100 µM (inactive)
DMS-273
  GI50: > 100 µM (inactive)
EKVX
  GI50: > 100 µM (inactive)
HCC 2998
  GI50: > 100 µM (inactive)
HCT-116
  GI50: > 100 µM (inactive)
HCT-15
  GI50: > 100 µM
HL-60
  GI50: > 100 µM (inactive)
HOP-18
  GI50: > 100 µM (inactive)
HOP-62
  GI50: > 100 µM (inactive)
HOP-92
  GI50: > 100 µM (inactive)
HT-29
  GI50: > 100 µM (inactive)
IGROV-1
  GI50: > 100 µM (inactive)
K562
  GI50: > 100 µM (inactive)
KM-20L2
  GI50: > 100 µM (inactive)
KM12
  GI50: > 100 µM (inactive)
LOX IMVI
  GI50: > 100 µM (inactive)
LXFL 529
  GI50: > 100 µM (inactive)
M14
  GI50: > 100 µM (inactive)
M19-MEL
  GI50: > 100 µM (inactive)
MOLT-4
  GI50: > 100 µM (inactive)
Malme-3M
  GI50: > 100 µM (inactive)
NCI-H226
  GI50: > 100 µM (inactive)
NCI-H23
  GI50: > 100 µM (inactive)
NCI-H460
  GI50: > 100 µM (inactive)
NCI-H522
  GI50: > 100 µM (inactive)
OVCAR-3
  GI50: > 100 µM (inactive)
OVCAR-4
  GI50: 91 µM (inactive)
OVCAR-5
  GI50: > 100 µM (inactive)
OVCAR-8
  GI50: > 100 µM (inactive)
RPMI-8226
  GI50: > 100 µM (inactive)
RXF 393
  GI50: > 100 µM (inactive)
SF-268
  GI50: > 100 µM (inactive)
SF-295
  GI50: > 100 µM (inactive)
SF-539
  GI50: > 100 µM (inactive)
SK-MEL-28
  GI50: > 100 µM (inactive)
SK-MEL-5
  GI50: > 100 µM (inactive)
SK-OV-3
  GI50: > 100 µM (inactive)
SN12C
  GI50: > 100 µM (inactive)
SNB-19
  GI50: > 100 µM (inactive)
SNB-75
  GI50: 76.9 µM (inactive)
SNB-78
  GI50: > 100 µM (inactive)
SR
  GI50: > 100 µM (inactive)
SW-620
  GI50: > 100 µM (inactive)
TK-10
  GI50: > 100 µM (inactive)
U-251
  GI50: > 100 µM (inactive)
UACC-257
  GI50: > 100 µM (inactive)
UACC-62
  GI50: > 100 µM (inactive)
UO-31
  GI50: > 100 µM (inactive)
XF498
  GI50: > 100 µM (inactive)
